Test results taken from ChEMBL document CHEMBL6103661, “Identification of Phosphodiesterase-7 Inhibitors with Spiro[[1,3]oxazolo[5,4-f]quinazoline-9,1'-cyclohexan]-7-one Scaffold for the Treatment of Chronic Fatigue” (ACS Med Chem Lett, 2025).
pIC50: −log10 of the molar value.

How the values were obtained:
[1] = target: 3',5'-cyclic-AMP phosphodiesterase 7B (Homo sapiens, UniProt Q9NP56); assay: Inhibition of human recombinant PDE7B expressed in Sf9 insect cells using FAM-cAMP as substrate preincubated for 15 mins followed by substrate addition and measured after 30 mins by spectrofluorimetry
Soleus muscle = assay: Protection against 12.5 mM KCl-induced loss of contractile force in Sprague-Dawley rat soleus muscle assessed as mean residual contractile force at 1 uM pretreated for 10 mins followed by KCl stimulation at 5 mins interval for 30 mins and measured in presence of salbutamol by isometric force transducer method relative to control; format: functional; details: time 40 min
[2] = target: High affinity 3',5'-cyclic-AMP phosphodiesterase 7A (Homo sapiens, UniProt Q13946); assay: Inhibition of human recombinant PDE7A expressed in Sf9 insect cells using FAM-cAMP as substrate preincubated for 15 mins followed by substrate addition and measured after 30 mins by spectrofluorimetry
Sequence of High affinity 3',5'-cyclic-AMP phosphodiesterase 7A (Q13946 whole entry): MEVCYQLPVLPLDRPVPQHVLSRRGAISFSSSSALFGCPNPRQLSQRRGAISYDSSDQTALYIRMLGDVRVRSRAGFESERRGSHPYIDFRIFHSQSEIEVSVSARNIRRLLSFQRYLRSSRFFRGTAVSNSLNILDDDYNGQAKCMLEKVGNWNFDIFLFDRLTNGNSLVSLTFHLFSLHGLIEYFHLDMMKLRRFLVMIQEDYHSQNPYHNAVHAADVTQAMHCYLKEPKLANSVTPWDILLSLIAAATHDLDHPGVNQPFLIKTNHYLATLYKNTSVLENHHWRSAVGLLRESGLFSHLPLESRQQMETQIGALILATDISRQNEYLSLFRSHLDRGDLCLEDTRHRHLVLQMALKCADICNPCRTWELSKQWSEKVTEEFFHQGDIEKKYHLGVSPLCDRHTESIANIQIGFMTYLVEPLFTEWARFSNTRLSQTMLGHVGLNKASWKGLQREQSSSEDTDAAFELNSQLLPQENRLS

Sequence of 3',5'-cyclic-AMP phosphodiesterase 7B (Q9NP56 whole entry): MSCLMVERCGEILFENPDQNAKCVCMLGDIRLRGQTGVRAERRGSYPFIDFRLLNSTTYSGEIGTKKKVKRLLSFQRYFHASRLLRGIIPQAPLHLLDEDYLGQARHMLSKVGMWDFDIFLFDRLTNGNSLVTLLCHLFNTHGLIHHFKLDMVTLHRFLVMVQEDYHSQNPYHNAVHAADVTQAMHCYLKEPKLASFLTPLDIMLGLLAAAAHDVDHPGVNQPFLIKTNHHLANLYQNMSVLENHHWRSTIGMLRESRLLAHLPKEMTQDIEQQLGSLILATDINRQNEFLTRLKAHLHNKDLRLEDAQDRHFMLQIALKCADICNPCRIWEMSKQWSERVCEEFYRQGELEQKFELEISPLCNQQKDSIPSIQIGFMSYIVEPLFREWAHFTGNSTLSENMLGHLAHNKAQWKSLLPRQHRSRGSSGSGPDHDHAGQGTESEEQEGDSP

pIC50 [1]	pIC50 [2]	Structure (SMILES)	Activity (Soleus muscle)
7.24	7.55	CN(C)C1CCN(C(=O)c2cc3cc(Cl)c4c(c3o2)C2(CCCCC2)NC(=O)N4)CC1	73.7%
	8.25	CN(C)C(=O)CNCc1nc2cc(Cl)c3c(c2o1)C1(CCCCC1)NC(=O)N3	60.5%
